The source of these data is patent US20240217985A1, “CRYSTALLINE FORM OF AN MDM2-p53 INHIBITOR AND PHARMACEUTICAL COMPOSITIONS” (Boehringer Ingelheim International GmbH, priority 2022, published 2024).

Molecules are shown by their SMILES.

The nature of series [1]: Aqueous solubility and BCS classification. The format is physicochemical.
Series [2] in a line: Lipophilicity at physiological pH. In kind it is physicochemical.

Consider `Cc1c(C(=O)O)ccc2c3n(nc12)[C@@H]1[C@H](C3)N(CC2CC2)[C@@]2(C(=O)Nc3cc(Cl)ccc32)[C@H]1c1cccc(Cl)c1F` [Compound A, (2′S,3′S,3a′S,10a′S)-6-chloro-3′-(3-chloro-2-fluorophenyl)-1′-(cyclopropylmethyl)-6′-methyl-2-oxo-1,2,3′,3a′,10′,10a′-hexahydro-1′H-spiro[indole-3,2′-pyrrolo[2′,3′:4,5]pyrrolo[1,2-b]indazole]-7′-carboxylic acid], for which, in series [1] (across the physiological pH range), the aqueous solubility result is on record as “low”. Also, in series [1] (class II = low solubility, high permeability), the “biopharmaceutical classification system class” value is “class II”. Besides, the lipophilicity entry in series [2] is reported as “lipophilic”.
